In patent US4999374A, “Veterinary treatment” (priority 1987, dated 1991):
Values joined by “and” are separate entries in the source; they are usually repeats but may differ in a detail not shown here. Identical values can stand only once. Like-named read-outs stand apart in the source and are kept apart here. Each block holds one molecule with its values, some of them ahead of it.

How the values were obtained:
T. hyodysenteriae [1] = assay: Comparative efficacy of M139603 and monensin in experimentally infected mice (Example 2, Table 2); type: in vivo, mice (strain MF-1); conditions: for Mean (log10) viable treponemes per gram caecum & contents / Viable treponemes per gram caecum & contents: 5 days; for Mean (log10) viable treponemes per gram caecum & contents: group mean; for Viable treponemes per gram caecum & contents: individual mice
Source text: (§1) The infection leads to varying degrees of caecitis, the lesions of which are apparent in animals killed on or about the sixth day post-infection. Caecal specimens examined by bacteriological culture techniques applicable for enumeration of organisms reveal the presence of high populations of T.hyodysenteriae. This disease-model was used in experiments to compare the efficacy of M139603 with that of salinomycin, lasalocid and monensin in suppressing the infection.
(§2) In this study, the efficacy of M139603 was tested at 25 ppm feed and that of monensin (Eli Lilly) at 50 or 100 ppm. Groups of infected mice, five per group, were offered the drugs in the feed on five continuous days before killing. Caecal materials were subjected to bacteriological examination to enumerate the populations of viable treponemes per gram of material. […] The group mean in respect of the unmedicated groups was 7.9 cfu/g.

T. hyodysenteriae [2] = assay: MIC of M139603 against thirteen T. hyodysenteriae isolates vs salinomycin and dimetridazole (Example 1, Table 1); type: cell-based, Treponema hyodysenteriae; conditions: Brachyspira hyodysenteriae
Method: The minimum inhibitory concentration of M139603 was tested in parallel with dimetridazole (May & Baker) and the growth-promoting polyether antibiotic salinomycin (Hoechst) against thirteen strains of T. hyodysenteriae.

T. hyodysenteriae [3] = assay: Comparative efficacy of M139603 and salinomycin in experimentally infected mice (Example 3, Table 3); type: in vivo, mice (strain MF-1); conditions: for Mean (log10) viable treponemes per gram caecum & contents / Viable treponemes per gram caecum & contents: 5 days; for Mean (log10) viable treponemes per gram caecum & contents: group mean; for Viable treponemes per gram caecum & contents: individual mice
Source text: as §1, §2
In this study, the efficacy of M139603 was tested at 30 ppm and that of salinomycin at 30, 40 or 60 ppm feed. The mouse-groups and test-procedureswere simi-ar to those applied under Example 2 above.

T. hyodysenteriae [4] = assay: Comparative efficacy of M139603 and lasalocid in experimentally infected mice (Example 4, Table 4); type: in vivo, mice (strain MF-1); conditions: for Mean (log10) viable treponemes per gram caecal contents / Viable treponemes per gram caecal contents: 5 days; for Mean (log10) viable treponemes per gram caecal contents: group mean (table); for Viable treponemes per gram caecal contents: individual mice
Source text: as §1, §2
In this study, the efficacy of M139603 was tested at 20 ppm feed and that of lasalocid (Hoffman la Roche) at 20, 40 and 80 ppm. The test procedures were similar to those above except for the size of the inoculum of T.hyodysenteriae (1.2×10^7 cfu) used in infecting each mouse. […] The mean (log10) counts of viable treponemes found in the caecal contents of the various groups were: 2.5 cfu/g caecum (139603 at 20 ppm), 7.35 cfu (lasalocid at 20 ppm), 7.45 cfu (lasalocid at 40 ppm), 3.81 cfu (lasalocid at 80 ppm) and 8.50 cfu (unmedicated control).

Compound: CC[C@@]1([C@@H]2O[C@@H]([C@H]3O[C@@](O)(CO)[C@H](C)C[C@@H]3C)C[C@@H]2C)CC[C@H]([C@]2(C)CC[C@]3(C[C@H](O)[C@@H](C)[C@@H]([C@@H](C)[C@@H](OC)[C@H](C)C(=O)O)O3)O2)O1 [Monensin, monensin]
Animals yielding high populations of viable treponema (T. hyodysenteriae [1]; 50 ppm feed): four out of five
Suppression of infection (T. hyodysenteriae [1]; 50 ppm feed): ineffective
Mean (log10) viable treponemes per gram caecum & contents (T. hyodysenteriae [1]; 50 ppm feed): 5.2 log10 per gram
Viable treponemes per gram caecum & contents (T. hyodysenteriae [1]; 50 ppm feed): 1.74 × 10^8 per gram and 2.90 × 10^7 per gram and 1.0 × 10^5 per gram and negative and 2.0 × 10^5 per gram
Populations of viable treponema (range) (T. hyodysenteriae [1]; 50 ppm feed, four of five animals): 1.0×10^5 -1.7×10^8 cfu/g
Group mean (log10) viable treponema (T. hyodysenteriae [1]; 50 ppm feed, log10): 5.2 cfu/g caecum
Suppression of infection (T. hyodysenteriae [1]; 100 ppm feed): suppressed the infection
Mean (log10) viable treponemes per gram caecum & contents (T. hyodysenteriae [1]; 100 ppm feed): 0 log10 per gram
Viable treponemes per gram caecum & contents (T. hyodysenteriae [1]; 100 ppm feed, limit of detection <1.0 × 10^2): negative

MIC (T. hyodysenteriae [2]; isolate B78, read-out: MIC): 3 µg/mL
MIC (T. hyodysenteriae [2]; isolate S82/6, read-out: MIC): 30 µg/mL
MIC (T. hyodysenteriae [2]; isolate S82/7, read-out: MIC): 30 µg/mL
MIC (T. hyodysenteriae [2]; isolate S83/1, read-out: MIC): 30 µg/mL
MIC (T. hyodysenteriae [2]; isolate S83/2, read-out: MIC): 3 µg/mL
MIC (T. hyodysenteriae [2]; isolate S83/5, read-out: MIC): 3 µg/mL
MIC (T. hyodysenteriae [2]; isolate S85/1, read-out: MIC): 30 µg/mL
MIC (T. hyodysenteriae [2]; isolate S85/2, read-out: MIC): 10 µg/mL
MIC (T. hyodysenteriae [2]; isolate S85/3, read-out: MIC): 10 µg/mL
MIC (T. hyodysenteriae [2]; isolate S85/8, read-out: MIC): 3 µg/mL
MIC (T. hyodysenteriae [2]; isolate S85/9, read-out: MIC): 5 µg/mL
MIC (T. hyodysenteriae [2]; isolate S86/1, read-out: MIC): < 0.5 µg/mL
MIC (T. hyodysenteriae [2]; isolate S86/2, read-out: MIC): 10 µg/mL
MIC (T. hyodysenteriae [2]; mean of 13 strains (table), read-out: Mean MIC): 12.9 µg/mL
Compound: Cc1ncc([N+](=O)[O-])n1C [Dimetridazole, dimetridazole]

Compound: CC[C@@H](C(=O)[C@@H](C)[C@@H](O)[C@H](C)[C@@H]1O[C@@H]([C@@H](CC)C(=O)O)CC[C@@H]1C)[C@H]1O[C@]2(C=C[C@@H](O)[C@]3(CC[C@@](C)([C@H]4CC[C@](O)(CC)[C@H](C)O4)O3)O2)[C@H](C)C[C@@H]1C [Salinomycin, salinomycin]
Suppression of infection (T. hyodysenteriae [3]; 30, 40 or 60 ppm feed): failed to do so, even at 60 ppm
Mean (log10) viable treponemes per gram caecum & contents (T. hyodysenteriae [3]; 30 ppm feed): 3.86 log10 per gram
Viable treponemes per gram caecum & contents (T. hyodysenteriae [3]; 30 ppm feed): negative and 6.0 × 10^6 per gram and 5.4 × 10^5 per gram
Mean (log10) viable treponemes per gram caecum & contents (T. hyodysenteriae [3]; 40 ppm feed): 6.03 log10 per gram
Viable treponemes per gram caecum & contents (T. hyodysenteriae [3]; 40 ppm feed): 6.0 × 10^6 per gram and 1.8 × 10^6 per gram and 1.6 × 10^5 per gram and 4.3 × 10^5 per gram
Mean (log10) viable treponemes per gram caecum & contents (T. hyodysenteriae [3]; 60 ppm feed): 5.52 log10 per gram
Viable treponemes per gram caecum & contents (T. hyodysenteriae [3]; 60 ppm feed): 1.3 × 10^7 per gram and 2.0 × 10^4 per gram and 1.0 × 10^6 per gram and 1.0 × 10^4 per gram and 1.5 × 10^6 per gram
MIC (T. hyodysenteriae [2]; isolate B78): 1 µg/mL
MIC (T. hyodysenteriae [2]; isolate S82/6): 0.75 µg/mL
MIC (T. hyodysenteriae [2]; isolate S82/7): 0.75 µg/mL
MIC (T. hyodysenteriae [2]; isolate S83/1): 0.75 µg/mL
MIC (T. hyodysenteriae [2]; isolate S83/2): 1 µg/mL
MIC (T. hyodysenteriae [2]; isolate S83/5): < 0.1 µg/mL
MIC (T. hyodysenteriae [2]; isolate S85/1): 0.75 µg/mL
MIC (T. hyodysenteriae [2]; isolate S85/2): 1 µg/mL
MIC (T. hyodysenteriae [2]; isolate S85/3): 0.75 µg/mL
MIC (T. hyodysenteriae [2]; isolate S85/8): 0.75 µg/mL
MIC (T. hyodysenteriae [2]; isolate S85/9): 0.5 µg/mL
MIC (T. hyodysenteriae [2]; isolate S86/1): < 0.1 µg/mL
MIC (T. hyodysenteriae [2]; isolate S86/2): 0.75 µg/mL
MIC (T. hyodysenteriae [2]; read-out: Mean MIC, mean of 13 strains (table)): 0.68 µg/mL

Compound: CC[C@@H](C(=O)[C@@H](C)[C@@H](O)[C@H](C)CCc1ccc(C)c(O)c1C(=O)O)[C@H]1O[C@](CC)([C@H]2CC[C@](O)(CC)[C@H](C)O2)C[C@@H]1C [Lasalocid, lasalocid]
Mean (log10) viable treponemes per gram caecal contents (T. hyodysenteriae [4]; 20 ppm feed): 7.35 log10 per gram
Viable treponemes per gram caecal contents (T. hyodysenteriae [4]; 20 ppm feed): 3.2 × 10^8 per gram and 1.1 × 10^4 per gram and 2.9 × 10^7 per gram and 1.7 × 10^8 per gram
Mean (log10) count of viable treponemes in caecal contents (T. hyodysenteriae [4]; 20 ppm feed): 7.35 cfu/g caecum
Mean (log10) viable treponemes per gram caecal contents (T. hyodysenteriae [4]; 40 ppm feed): 7.45 log10 per gram
Viable treponemes per gram caecal contents (T. hyodysenteriae [4]; 40 ppm feed): 3.0 × 10^ 6 per gram and 1.4 × 10^8 per gram and 2.1 × 10^8 per gram and 1.7 × 10^7 per gram and 1.2 × 10^7 per gram
Mean (log10) count of viable treponemes in caecal contents (T. hyodysenteriae [4]; 40 ppm feed): 7.45 cfu/g caecum
Mean (log10) viable treponemes per gram caecal contents (T. hyodysenteriae [4]; 80 ppm feed): 3.81 log10 per gram
Viable treponemes per gram caecal contents (T. hyodysenteriae [4]; 80 ppm feed): 4.0 × 10^4 per gram and 0 per gram and 1.0 × 10^6 per gram and 1.3 × 10^5 per gram and 2.3 × 10^3 per gram
Mean (log10) count of viable treponemes in caecal contents (T. hyodysenteriae [4]; 80 ppm feed): 3.81 cfu/g caecum
